Measurements reported in PubChem BioAssay (NCI).
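GI50: concentration for 50% inhibition of growth. Definition used: TGI = concentration required for complete inhibition of growth.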

Key:
Assay in all cases: NCI anticancer screen, dose series, 384-well format; in the data active = GI50 below about 0.43 µM; inactive = the rest
[1] = tested on: MDA-MB-435 melanoma
[2] = tested on: LOX IMVI melanoma
[3] = tested on: SF-268 CNS
[4] = tested on: UO-31 renal
[5] = tested on: HCT-15 colon
[6] = tested on: CCRF-CEM leukemia
[7] = tested on: HOP-92 NSCLC
[8] = tested on: UACC-62 melanoma
[9] = tested on: BT-549 breast
[10] = tested on: NCI-H23 lung
[11] = tested on: MCF7 breast
[12] = tested on: NCI/ADR-RES ovarian
[13] = tested on: SNB-19 CNS
[14] = tested on: MDA-MB-231 breast
[15] = tested on: DU-145 prostate
[16] = tested on: IGROV1 ovarian
[17] = tested on: HT29 colon
[18] = tested on: HOP-62 NSCLC
[19] = tested on: OVCAR-8 ovarian
[20] = tested on: SK-MEL-5 melanoma
[21] = tested on: NCI-H460 NSCLC
[22] = tested on: SK-MEL-2 melanoma
[23] = tested on: SF-295 CNS
[24] = tested on: HCT-116 colon
[25] = tested on: CAKI-1 renal
[26] = tested on: U251 glioblastoma
[27] = tested on: HL-60(TB) leukemia
[28] = tested on: K-562 leukemia
[29] = tested on: MALME-3M melanoma
[30] = tested on: A498 renal
[31] = tested on: MOLT-4 leukemia
[32] = tested on: A549 NSCLC
[33] = tested on: SK-OV-3 ovarian
[34] = tested on: SW-620 colon
[35] = tested on: HCC-2998 colon
[36] = tested on: OVCAR-5 ovarian
[37] = tested on: COLO 205 colon
[38] = tested on: UACC-257 melanoma
[39] = tested on: SN12C renal
[40] = tested on: PC-3 prostate
[41] = tested on: NCI-H322M lung
[42] = tested on: M14 melanoma
[43] = tested on: 786-0 renal
[44] = tested on: MDA-MB-468 breast
[45] = tested on: RPMI-8226 leukemia
[46] = tested on: EKVX NSCLC
[47] = tested on: NCI-H226 lung

C/C=C1\NC(=O)[C@H]2CSSCCC=C[C@H](CC(=O)N[C@H](C(C)C)C(=O)N2)OC(=O)[C@H](C(C)C)NC1=O
< 10 nM: TGI [1] | TGI [2] | TGI [3] | TGI [6] | TGI [7] | TGI [8] | TGI [9] | TGI [10] | TGI [11] | TGI [13] | TGI [14] | TGI [15] | TGI [16] | TGI [17] | TGI [18] | TGI [19] | TGI [20] | TGI [22] | TGI [23] | TGI [24] | TGI [25] | TGI [26] | TGI [27] | TGI [28] | TGI [29] | TGI [30] | TGI [31] | TGI [32] | TGI [33] | TGI [34] | TGI [35] | TGI [36] | TGI [37] | TGI [38] | TGI [39] | TGI [40] | TGI [41] | TGI [42] | TGI [44] | TGI [45]
10.1 nM: TGI [21]
806 nM: TGI [5]
30.8 nM: TGI [46]
159 nM: TGI [4]
inactive: GI50 [12] 2850 nM
19.2 nM: TGI [47]
13.8 µM: TGI [12]
< 14.9 nM: TGI [43]
active: GI50 [1] < 10 nM | GI50 [2] < 10 nM | GI50 [3] < 10 nM | GI50 [4] 43.6 nM | GI50 [5] 82.9 nM | GI50 [6] < 10 nM | GI50 [7] < 10 nM | GI50 [8] < 10 nM | GI50 [9] < 10 nM | GI50 [10] < 10 nM | GI50 [11] < 10 nM | GI50 [13] < 10 nM | GI50 [14] < 10 nM | GI50 [15] < 10 nM | GI50 [16] < 10 nM | GI50 [17] < 10 nM | GI50 [18] < 10 nM | GI50 [19] < 10 nM | GI50 [20] < 10 nM | GI50 [21] < 10 nM | GI50 [22] < 10 nM | GI50 [23] < 10 nM | GI50 [24] < 10 nM | GI50 [25] < 10 nM | GI50 [26] < 10 nM | GI50 [27] < 10 nM | GI50 [28] < 10 nM | GI50 [29] < 10 nM | GI50 [30] < 10 nM | GI50 [31] < 10 nM | GI50 [32] < 10 nM | GI50 [33] < 10 nM | GI50 [34] < 10 nM | GI50 [35] < 10 nM | GI50 [36] < 10 nM | GI50 [37] < 10 nM | GI50 [38] < 10 nM | GI50 [39] < 10 nM | GI50 [40] < 10 nM | GI50 [41] < 10 nM | GI50 [42] < 10 nM | GI50 [43] < 10 nM | GI50 [44] < 10 nM | GI50 [45] < 10 nM | GI50 [46] < 10 nM | GI50 [47] < 10 nM
